According to PubChem BioAssay AID248 (DTP/NCI, 2004):
Where “and” joins values, the source holds several entries; their conditions need not be identical. Equal values may be shown once. Toxic doses and inconclusive results are not listed. Cut-off read from the data, not from the text of the source: active = T/C of 150% or more; inactive = T/C below 125%.

System: L1210 leukemia ip in BDF1 mice, survival T/C
Test: NCI In Vivo Anticancer Drug Screen. Data for tumor model L1210 Leukemia (intraperitoneal) in B6D2F1 (BDF1) mice
Conditions: endpoint: mean survival time, higher = longer survival
In short: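 Transplantable tumor model; survival measured in treated vs vehicle control mice. Value = treated/control.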

[1] = dose: 100.0 mg/kg/injection, schedule: Q04DX002 (ip), vehicle: Klucel (hydroxypropylcellulose) (HPC)
[2] = dose: 200.0 mg/kg/injection, schedule: Q04DX002 (ip), vehicle: Klucel (hydroxypropylcellulose) (HPC)
[3] = dose: 400.0 mg/kg/injection, schedule: Q04DX002 (ip), vehicle: Klucel (hydroxypropylcellulose) (HPC)
[4] = dose: 100.0 mg/kg/injection, schedule: Q04DX003 (ip), vehicle: Klucel (hydroxypropylcellulose) (HPC)
[5] = dose: 200.0 mg/kg/injection, schedule: Q04DX003 (ip), vehicle: Klucel (hydroxypropylcellulose) (HPC)
[6] = dose: 400.0 mg/kg/injection, schedule: Q04DX003 (ip), vehicle: Klucel (hydroxypropylcellulose) (HPC)
[7] = dose: 100.0 mg/kg/injection, schedule: Q01DX001 (ip), vehicle: carboxymethylcellulose (CMC)
[8] = dose: 200.0 mg/kg/injection, schedule: Q01DX001 (ip), vehicle: carboxymethylcellulose (CMC)
[9] = dose: 400.0 mg/kg/injection, schedule: Q01DX001 (ip), vehicle: carboxymethylcellulose (CMC)
[10] = dose: 100.0 mg/kg/injection, schedule: Q01DX009 (ip), vehicle: Klucel (hydroxypropylcellulose) (HPC)
[11] = dose: 100.0 mg/kg/injection, schedule: Q01DX009 (ip), vehicle: saline with Tween-80
[12] = dose: 200.0 mg/kg/injection, schedule: Q01DX009 (ip), vehicle: saline with Tween-80
[13] = dose: 100.0 mg/kg/injection, schedule: Q04DX003 (ip), vehicle: saline with Tween-80
[14] = dose: 200.0 mg/kg/injection, schedule: Q04DX003 (ip), vehicle: saline with Tween-80
[15] = dose: 400.0 mg/kg/injection, schedule: Q04DX003 (ip), vehicle: saline with Tween-80
[16] = dose: 50.0 mg/kg/injection, schedule: Q01DX001 (ip), vehicle: saline
[17] = dose: 100.0 mg/kg/injection, schedule: Q01DX001 (ip), vehicle: saline
[18] = dose: 200.0 mg/kg/injection, schedule: Q01DX001 (ip), vehicle: saline
[19] = dose: 400.0 mg/kg/injection, schedule: Q01DX001 (ip), vehicle: saline
[20] = dose: 50.0 mg/kg/injection, schedule: Q01DX009 (ip), vehicle: Klucel (hydroxypropylcellulose) (HPC)

Measured: T/C

CNC(=S)NNC(=O)c1ccncc1
inactive: dose: 100.0 mg/kg/injection, schedule: Q04DX002 (ip), vehicle: saline with Tween-80 100 % of control | dose: 200.0 mg/kg/injection, schedule: Q04DX002 (ip), vehicle: saline with Tween-80 100 % of control | dose: 400.0 mg/kg/injection, schedule: Q04DX002 (ip), vehicle: saline with Tween-80 100 % of control

O=C(O)c1cccc2c1C(=O)c1c(Cl)cccc1C2=O
inactive: [1] 99 % of control | [2] 99 % of control | [3] 99 % of control

O=C1C=C/C(=N/S(=O)(=O)c2ccccc2)c2ccccc21
inactive: dose: 6.0 mg/kg/injection, schedule: Q01DX009 (ip), vehicle: DMSO 106 % of control | dose: 12.0 mg/kg/injection, schedule: Q01DX009 (ip), vehicle: DMSO 88 % of control | dose: 25.0 mg/kg/injection, schedule: Q01DX009 (ip), vehicle: DMSO 86 % of control | dose: 25.0 mg/kg/injection, schedule: Q04DX003 (ip), vehicle: DMSO 94 % of control | dose: 50.0 mg/kg/injection, schedule: Q04DX003 (ip), vehicle: DMSO 89 % of control | dose: 100.0 mg/kg/injection, schedule: Q04DX003 (ip), vehicle: DMSO 106 % of control and 88 % of control

CCN(CC)C(=O)c1cccnc1
inactive: dose: 12.5 mg/kg/injection, schedule: Q01DX009 (ip), vehicle: saline 102 % of control | dose: 25.0 mg/kg/injection, schedule: Q01DX009 (ip), vehicle: saline 89 % of control | dose: 50.0 mg/kg/injection, schedule: Q01DX009 (ip), vehicle: saline 93 % of control | dose: 75.0 mg/kg/injection, schedule: Q01DX001 (ip), vehicle: saline 102 % of control | dose: 100.0 mg/kg/injection, schedule: Q01DX009 (ip), vehicle: saline 105 % of control | dose: 150.0 mg/kg/injection, schedule: Q01DX001 (ip), vehicle: saline 94 % of control | dose: 200.0 mg/kg/injection, schedule: Q01DX009 (ip), vehicle: saline 93 % of control | dose: 300.0 mg/kg/injection, schedule: Q01DX001 (ip), vehicle: saline 90 % of control

COC(=O)CNc1cccc([N+](=O)[O-])c1
inactive: [4] 95 % of control | [5] 102 % of control | [6] 101 % of control

O=C1CC(Cc2n[nH]c3c2CCC3)CC(=O)N1
inactive: [7] 103 % of control | dose: 100.0 mg/kg/injection, schedule: Q04DX003 (ip), vehicle: carboxymethylcellulose (CMC) 97 % of control | [8] 97 % of control | dose: 200.0 mg/kg/injection, schedule: Q04DX003 (ip), vehicle: carboxymethylcellulose (CMC) 94 % of control | [9] 105 % of control | dose: 400.0 mg/kg/injection, schedule: Q04DX003 (ip), vehicle: carboxymethylcellulose (CMC) 101 % of control

Cc1ccc2nn(-c3ccc(O)cc3)nc2c1
inactive: [7] 98 % of control | [8] 93 % of control | [9] 96 % of control

O=C(O)c1nc2ccccc2[nH]c1=O
inactive: [4] 88 % of control | [5] 92 % of control | [6] 87 % of control

CCC(C)N(CCNc1cc(C)nc(/N=C(\N)Nc2ccc(Cl)c(Cl)c2)n1)C(C)CC (configuration not stated)
inactive: [10] 106 % of control | dose: 200.0 mg/kg/injection, schedule: Q01DX009 (ip), vehicle: Klucel (hydroxypropylcellulose) (HPC) 97 % of control | dose: 400.0 mg/kg/injection, schedule: Q01DX009 (ip), vehicle: Klucel (hydroxypropylcellulose) (HPC) 86 % of control

C=CCNc1ccc(OC)cc1
inactive: dose: 50.0 mg/kg/injection, schedule: Q01DX009 (ip), vehicle: saline with Tween-80 88 % of control | [11] 96 % of control | [12] 98 % of control

CNc1ccc2cc(Br)ccc2c1
inactive: dose: 100.0 mg/kg/injection, schedule: Q01DX005 (ip), vehicle: Klucel (hydroxypropylcellulose) (HPC) 107 % of control | dose: 200.0 mg/kg/injection, schedule: Q01DX005 (ip), vehicle: Klucel (hydroxypropylcellulose) (HPC) 107 % of control | [5] 95 % of control | dose: 400.0 mg/kg/injection, schedule: Q01DX005 (ip), vehicle: Klucel (hydroxypropylcellulose) (HPC) 95 % of control | [6] 101 % of control

O=C(/C=C/c1ccc(Cl)cc1Cl)c1ccc(Cl)cc1
inactive: [11] 105 % of control | [13] 95 % of control | [12] 90 % of control | [14] 93 % of control | dose: 400.0 mg/kg/injection, schedule: Q01DX009 (ip), vehicle: saline with Tween-80 90 % of control | [15] 88 % of control

O=C1C2=C(CCCC2)C(=O)c2ccccc21
inactive: [16] 93 % of control | [17] 100 % of control | [18] 96 % of control | [19] 102 % of control

Fc1ccc(NC(=S)NCCN2CCCC2)cc1
inactive: dose: 25.0 mg/kg/injection, schedule: Q01DX009 (ip), vehicle: Klucel (hydroxypropylcellulose) (HPC) 100 % of control | [20] 117 % of control | [10] 100 % of control and 102 % of control

O=[N+]([O-])c1cccc(/C=N/N(c2ccccc2)C2CCS(=O)(=O)C2)c1 (configuration not stated)
inactive: [1] 95 % of control | [2] 106 % of control | [3] 103 % of control

CCOC(=O)c1cnc2c(ccc3ncccc32)c1NCCCN(CC)CC
inactive: [20] 112 % of control

CN(N)C(=O)Nc1ccccc1Cl
inactive: dose: 75.0 mg/kg/injection, schedule: Q01DX001 (ip), vehicle: carboxymethylcellulose (CMC) 100 % of control | dose: 150.0 mg/kg/injection, schedule: Q01DX001 (ip), vehicle: carboxymethylcellulose (CMC) 107 % of control

CC(C)(C)c1cc(O)c(C(C)(C)C)cc1O
inactive: [16] 90 % of control | [17] 96 % of control | dose: 100.0 mg/kg/injection, schedule: Q04DX002 (ip), vehicle: gum acacia 106 % of control | [18] 94 % of control | dose: 200.0 mg/kg/injection, schedule: Q04DX002 (ip), vehicle: gum acacia 106 % of control | [19] 98 % of control | dose: 400.0 mg/kg/injection, schedule: Q04DX002 (ip), vehicle: gum acacia 108 % of control

CC1(C)CC(N)CC(C)(C)N1
inactive: dose: 50.0 mg/kg/injection, schedule: Q01DX001 (ip), vehicle: carboxymethylcellulose (CMC) 107 % of control | [7] 103 % of control

C/C(Cc1ccccc1)=N\[N+](C)(C)C
inactive: dose: 75.0 mg/kg/injection, schedule: Q01DX009 (ip), vehicle: saline 107 % of control | dose: 100.0 mg/kg/injection, schedule: Q04DX003 (ip), vehicle: saline 104 % of control | dose: 150.0 mg/kg/injection, schedule: Q01DX009 (ip), vehicle: saline 100 % of control | dose: 200.0 mg/kg/injection, schedule: Q04DX003 (ip), vehicle: saline 86 % of control

COc1ccc(CCO)cc1
inactive: [13] 92 % of control | [14] 101 % of control | [15] 95 % of control

Cc1ccc(-c2ccccc2)cc1C(=O)O
inactive: [1] 94 % of control | [2] 90 % of control | [3] 101 % of control

Cc1ccc(C(=O)c2ccccc2)cc1
inactive: [4] 97 % of control | [5] 104 % of control | [6] 92 % of control
